Data published in ChEMBL document CHEMBL1131999, “Design, synthesis and testing of amino-bicycloaryl based orally bioavailable thrombin inhibitors” (Bioorg Med Chem Lett, 1999).

Legend:
Prothrombin = Prothrombin (Homo sapiens, UniProt P00734); experiment: In vitro thrombin inhibition
Serine protease 1 = Serine protease 1 (Homo sapiens, UniProt P07477); experiment: In vitro trypsin inhibition
Caco-2 = conditions: Homo sapiens
Description: The compound was evaluated in vitro for the Caco-2 cell permeability.

[1] = Oral bioavailability in dog; assay type: ADME, organism-based, Canis lupus familiaris; conditions: in vivo

Serine protease 1, sequence (P07477 whole entry): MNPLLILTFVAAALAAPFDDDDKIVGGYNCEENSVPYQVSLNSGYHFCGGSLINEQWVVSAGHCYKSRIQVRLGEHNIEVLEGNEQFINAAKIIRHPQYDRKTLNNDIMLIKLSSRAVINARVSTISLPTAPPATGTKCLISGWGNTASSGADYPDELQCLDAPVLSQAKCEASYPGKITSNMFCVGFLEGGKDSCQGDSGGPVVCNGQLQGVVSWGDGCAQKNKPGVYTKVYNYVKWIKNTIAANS

Row | Compound | IC50 (Prothrombin) [µM] | IC50 (Serine protease 1) [µM] | Papp (Caco-2) [×10⁻⁶ cm/s] | bioavailability [1] [%]
1 | COc1ccc2ccc(S(=O)(=O)NC(Cc3cc4c(N)nccc4s3)C(=O)N3CCN(S(C)(=O)=O)CC3)cc2c1 (stereo not given) | 0.56 | 18 | – | –
2 | CC1CCN(C(=O)C(Cc2cccc(C(=N)N)c2)NS(=O)(=O)c2ccc3ccccc3c2)CC1 (stereo not given) | 0.64 | 1.9 | – | –
3 | COc1cc2ccc(S(=O)(=O)NC(Cc3cc4c(N)nccc4s3)C(=O)N3CCC(C)CC3)cc2cc1OC (stereo not given) | 5 | 4 | – | –
4 | COc1ccc2ccc(S(=O)(=O)NC(Cc3cc4c(N)nccc4s3)C(=O)N3CCN(C)CC3)cc2c1 (stereo not given) | 6 | 13 | – | –
5 | COc1ccc2ccc(S(=O)(=O)NC(Cc3ccc4ccnc(N)c4c3)C(=O)N3CCC(C)CC3)cc2c1 (stereo not given) | 0.63 | 8 | – | –
6 | COc1ccc2ccc(S(=O)(=O)NC(Cc3cc4c(N)nccc4s3)C(=O)N3CCC(C(C)=O)CC3)cc2c1 (stereo not given) | 1.4 | 2 | 2.3 | –
7 | CC1CCN(C(=O)C(Cc2cc3c(N)nccc3s2)NS(=O)(=O)c2ccc3ccccc3c2)CC1 (stereo not given) | 209 | 205 | 11.7 | –
8 | COc1ccc2ccc(S(=O)(=O)NC(Cc3cc4c(N)nccc4s3)C(=O)N3CCC(C)CC3)cc2c1 (stereo not given) | – | 4 | 12.1 | 36
9 | COc1ccc2ccc(S(=O)(=O)NC(Cc3cc4c(N)nccc4o3)C(=O)N3CCC(C)CC3)cc2c1 (stereo not given) | 1.58 | 6 | 0.9 | –
10 | COc1ccc2ccc(S(=O)(=O)NC(Cc3ccc4c(N)nccc4c3)C(=O)N3CCC(C)CC3)cc2c1 (stereo not given) | 48 | 27 | 7.5 | –
